Measurements published in patent US20240279202A1 (NURIX THERAPEUTICS, INC., priority 2021, published 2024).

Experiments:
ITK [1] = target: T1, ITK (Homo sapiens, UniProt Q08881); test: ITK degradation MSD (Meso Scale Discovery) assay; assay type: cell-based; design: either human Jurkat (Clone E6-1 ATCC TIB-152) or Motl4 (ATCC CRL-1552), were plated; endogenous in cells; host or cells: Jurkat clone E6-1 (ATCC TIB-152) or Molt4 (ATCC CRL-1552); details: Jurkat or Molt4 cells, 4 or 6 hrs
T1 sequence (Q08881 1-620): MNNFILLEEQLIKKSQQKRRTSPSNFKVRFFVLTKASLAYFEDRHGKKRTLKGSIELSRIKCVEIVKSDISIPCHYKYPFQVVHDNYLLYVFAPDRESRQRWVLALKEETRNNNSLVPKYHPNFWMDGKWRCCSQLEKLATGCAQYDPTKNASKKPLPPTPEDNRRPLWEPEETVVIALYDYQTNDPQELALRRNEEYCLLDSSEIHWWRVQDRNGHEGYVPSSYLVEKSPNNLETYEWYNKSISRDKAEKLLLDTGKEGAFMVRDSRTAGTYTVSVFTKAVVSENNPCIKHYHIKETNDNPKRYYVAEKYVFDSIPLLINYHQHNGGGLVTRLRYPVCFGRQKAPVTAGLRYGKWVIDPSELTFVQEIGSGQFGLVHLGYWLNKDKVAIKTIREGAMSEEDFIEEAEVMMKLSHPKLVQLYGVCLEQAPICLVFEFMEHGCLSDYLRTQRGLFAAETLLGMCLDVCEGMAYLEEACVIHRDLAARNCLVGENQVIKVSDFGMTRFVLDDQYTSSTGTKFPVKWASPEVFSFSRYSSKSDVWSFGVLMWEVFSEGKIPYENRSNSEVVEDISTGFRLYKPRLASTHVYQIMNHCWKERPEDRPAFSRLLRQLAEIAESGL
Procedure: ITK Degradation MSD (Meso Scale Discovery) Assay Compound dilution series (7-point, 5 fold dilutions in DMSO, rows B-H with replicate in Column 1⁄2, 3⁄4, 5⁄6, 7,8, at 2000× the final required concentrations were prepared in 96 well plates (Falcon, cat. no. 353077). Row A, Column 1-8 were control DMSO. The 2000× solutions ranged from 2 mM to 128 nM (final assay concentration range 1 μM to […]). The 2000× solutions were added to cells in […], for a final DMSO concentration of 0.5% and final assay compound concentration of 1×. For the cells, either human Jurkat (Clone E6-1 ATCC TIB-152) or Motl4 (ATCC CRL-1552), were plated at 1×10^6 cells/mL, 100 μL/well ([…]) in complete RPMI (10% FBS, 1% L-glutamine). Cells were incubated for 4 or 6 hrs at 32° C./6% CO2. Following incubation, plates were centrifuged at 1200 rpm for 5 min. supernatant was removed and 50 μL of cell lysis buffer ((MSD Tris lysis buffer (R60TX), Complete Mini EDTA-free protease inhibitor (Sigma 11836170001), Protease Inhibitor Cocktail (Sigma, P2714), Phosphatase Inhibitor Cocktail 2 and 3 (Sigma, P5726 and P0044), and Benzonase (Sigma, E1014)) was added to each well. Plates were sealed and shook at 4° C. for 30 min. Plates were centrifuged and 45 μL was removed for plate assays. Assay plate preparation: Meso Scale Discovery (MSD) multi-array sm spot 96 well plates (Goat anti-Rabbit L^45-RA), were blocked with 3% BSA blocking buffer (3% Bovine Serum Albumin (Sigma A3059)+TBS 0.2% Tween-20) for 1 hr with gentle rocking at room temperature. Plates were then washed with 200 μL of 1× TBST (TBS 0.2% Tween-20) 3 times. After last wash, liquid was removed and 50 μL per well of capture antibody (abcam ITK Y402-ab32507) was added to plates at a 1:1000 dilution in blocking buffer (above). Plates were sealed and rocked at room temperature for 2 hrs. Plates were then washed 3 times with 200 μL of 1× TBST. After last wash, liquid was removed and 45 μL of cell lysate (from above) was added to each plate. Plates were sealed and rocked overnight at 4° C. Next day, cell lysates were removed, and assay plates were washed 3 times with 200 μL of 1× TBST. After last wash, liquid was removed and detection antibody (CST ITK (2F12) #2380) was added at 50 μL per well at a dilution of 1:1000 in blocking buffer. Plates were sealed and rocked at room temperature for 2 hrs. Plates were washed 3 times with 200 uL of 1× TBST. After last wash, liquid was removed, MSD Mouse anti-Rabbit sulfo tag (R32AC-1) was diluted to 1:1000 in blocking buffer. 50 μL was added to each well on the plate. Plates were sealed and incubated at room temperature for 1 hr. Plates were washed 3 times with 200 μL of 1× TBST. After last wash, liquid was removed and 150 μL of 1× MSD Read Buffer T ([…]) was then added to each well for ECL read out. For reading ECL signal, plate is read on a Meso Scale Discovery (MSD) MESO Sector S 600 plate reader. Percent ITK in then calculated as described below. Percent ITK remaining per sample was calculated as follows: [formula] Using Graphpad Prism, % ITK remaining values were plotted as a function of compound concentration. To determine DC50 and Dmax values, resulting curves were fit to the Prism curve-fitting equation “log(inhibitor) vs response-Variable slope (four parameters)” (reported best fit value IC50 used as DC50).

ITK [2] = target: T2, ITK (Mus musculus, UniProt Q03526); test: Mouse PD assay for ITK degradation (Western blot, splenocytes after oral administration); assay type: in vivo; details: percent ITK remaining in mouse splenocytes relative to vehicle, 90 mpk PO, 6 h
T2 construct: mice were sacrificed and splenocytes were isolated and used to prepare protein lysates; from tissue; host or cells: mouse splenocytes (spleen) after oral dosing
T2 sequence (Q03526 1-625): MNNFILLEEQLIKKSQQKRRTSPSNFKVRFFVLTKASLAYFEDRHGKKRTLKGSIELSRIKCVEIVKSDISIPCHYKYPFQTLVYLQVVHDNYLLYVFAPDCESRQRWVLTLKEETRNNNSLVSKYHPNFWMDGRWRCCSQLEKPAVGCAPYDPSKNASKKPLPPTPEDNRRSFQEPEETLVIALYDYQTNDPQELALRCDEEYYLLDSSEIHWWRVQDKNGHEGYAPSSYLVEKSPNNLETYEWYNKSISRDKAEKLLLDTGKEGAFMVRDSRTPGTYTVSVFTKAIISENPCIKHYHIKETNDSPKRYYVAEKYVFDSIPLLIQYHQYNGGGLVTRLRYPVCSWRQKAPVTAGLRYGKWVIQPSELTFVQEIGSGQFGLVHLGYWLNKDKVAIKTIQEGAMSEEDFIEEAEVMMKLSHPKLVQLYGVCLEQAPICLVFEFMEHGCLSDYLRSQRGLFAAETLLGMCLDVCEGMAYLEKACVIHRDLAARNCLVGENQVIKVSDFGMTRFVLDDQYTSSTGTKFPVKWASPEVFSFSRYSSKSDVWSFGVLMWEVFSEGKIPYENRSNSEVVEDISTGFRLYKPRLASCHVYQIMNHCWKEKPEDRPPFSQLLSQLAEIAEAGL
Procedure: Compounds 1, 3, 7, and 42 were formulated and administered at 90 mg/kg to mice by oral gavage (PO). Blood was collected at defined time points (after 1, 2, and 6 hours) after compounds administration to determine PK parameters. Concentration increased through 6 hours. Six hours later mice were sacrificed and splenocytes were isolated and used to prepare protein lysates. Total protein levels were determined in the lysates using the BCA assay according to standard methods. Equal amounts of protein were then analyzed by Western blot to determine the level of ITK expression in each sample. ITK band intensities were measured using Alpha View software and the percent of ITK remaining in each test animal was determined relative to the mean of ITK levels in vehicle control samples.
After 6 hours, splenocytes cells were harvested. ITK was evaluated by Western blotting.
Compounds 43, 4, 5, 10, 11, 12, 44, 14, 3, and 13 were administered to mice orally. After 6 hours, splenocytes cells were harvested. ITK was evaluated by Western blotting. Media was removed and cell pellets were lysed in 100 uL lysis buffer (RIPA buffer (Fisher, PI89901), cOmplete Mini EDTA-free protease inhibitor (Sigma 11836170001), Protease Inhibitor Cocktail (Sigma, P2714), Phosphatase Inhibitor Cocktail 2 and 3 (Sigma, P5726 and P0044), Benzonase (Sigma, E1014)). Cells were lysed overnight at −20° C. Following thaw, cells were centrifuged for 10 min at 13000 rpm, then transferred to new tube. Protein levels were determined by BCA Assay performed according to manufacturer's protocol (EMID Millipore, cat. no. 71285-3). Samples were combined with (4×) LDS Sample Buffer and (10×) Reducing Agent and H2O to equally load 20 ug protein per lane of a 26-well NuPAGE 4-12% Bis-Tris protein gel (1.0 mm, Thermo cat. no. NP0326). Samples were separated by running gels at constant 150 V in NuPAGE MES SDS Running Buffer. Following electrophoresis, proteins were transferred to nitrocellulose membranes using an iBlot Gel Transfer Device and iBlot Gel Transfer Stacks (Thermo cat. no. IB21001 and IB301001) and transfer method P3 (20V for 7 min). Membranes were blocked for 1 hr in 5% milk solution (TBS (0.2% Tween-20)). Following blocking, membranes were incubated with primary antibody (1:1000 CST ITK (2F12) #2380) overnight at 4° C. with gentle shaking. Blots were washed 2× in TBS (0.2% Tween-20), 30 min per wash. Following washes, blots were incubated in secondary HRP-conjugated antibody (Promega anti-Mouse IgG (H+L) HRP cat. no. W4021), 1:5000 in 5% milk solution (TBS (0.2% Tween-20)), for 1 hr at room temperature with gentle shaking. Blots were washed 2× in TBS (0.2% Tween-20), 30 min per wash. Blots were incubated with 1:1 mix of ECL reagents 1 & 2 (Amersham ECL Western Blotting Detection Reagent, cat. no. RPN2106) for 2 min at room temperature. Bands were visualized using a Protein Simple imager. Blots were then re-probed with a combination of anti-actin antibody (Sigma Monoclonal Mouse Anti-3-Actin (clone AC-15), cat. no. A5441) and secondary H1RP-conjugated antibody (Promega anti-Mouse IgG (H+L) HRP, cat. no. W4021) and similar steps were taken for incubation, wash, detection and visualization steps as above. The data was analyzed using Alpha View software. The densitometric reading for each sample band was normalized to that of the corresponding actin band per lane. Approximate % ITK remaining per sample was calculated as follows: […]
Once % ITK remaining has been calculated for each sample, groups are averaged together to show an means % ITK normalized to actin and relative to control.
Compounds 16, 17, and 18 were administered to mice orally. After 6 hours or 24 hours, splenocytes cells were harvested. ITK was evaluated by Western blotting. Plasma concentrations were determined by LC/MS/MS. Plasma samples were protein precipitated by addition of 100 μl of acetonitrile containing 50 ng/ml of internal standard. The resulting mixture was vortexed and centrifuged at 4000 RPM for 5 minutes. […]

SMILES | DC50 (ITK [1]) [nM] | Dmax (ITK [1]) [%] | ITK (%) 90 mpk PO, 6 h (ITK [2]) [%]
CC(C1CN(C(=O)C2CN(C3CCN(c4ccc5c(c4)C(=O)N(C4CCC(=O)NC4=O)C5=O)CC3)C2)C1)n1cc(NC(=O)c2n[nH]c3c2C[C@@H]2C(F)(F)[C@]2(C)C3)cn1 (stereo partly drawn) [Compound 39, (4aS,5aR)-N-(1-(1-(1-(1-(1-(2-(2,6-dioxopiperidin-3-yl)-1,3-dioxoisoindolin-5-yl)piperidin-4-yl)azetidine-3-carbonyl)azetidin-3-yl)ethyl)-1H-pyrazol-4-yl)-5,5-difluoro-5a-methyl-1,4,4a,5,5a,6-hexahydrocyclopropa[f]indazole-3-carboxamide] | 0.88 | 94 | –
C[C@@]12Cc3[nH]nc(C(=O)Nc4cnn([C@H](c5ccccc5)C5CN(C(=O)CCOCCOCCOCCNc6cccc7c6C(=O)N(C6CCC(=O)NC6=O)C7=O)C5)c4)c3C[C@@H]1C2(F)F (stereo partly drawn) [Compound 28, (4aS,5aR)-N-(1-((1S)-(1-(3-(2-(2-(2-((2-(2,6-dioxopiperidin-3-yl)-1,3-dioxoisoindolin-4-yl)amino)ethoxy)ethoxy)ethoxy)propanoyl)azetidin-3-yl)(phenyl)methyl)-1H-pyrazol-4-yl)-5,5-difluoro-5a-methyl-1,4,4a,5,5a,6-hexahydrocyclopropa[f]indazole-3-carboxamide] | 3.9 | 94 | –
C[C@@]12Cc3[nH]nc(C(=O)Nc4cnn([C@H](c5ccccc5)C5CN(C(=O)CCCCc6cccc7c6CN(C6CCC(=O)NC6=O)C7=O)C5)c4)c3C[C@@H]1C2(F)F (stereo partly drawn) [Compound 32, (4aS,5aR)-N-(1-((1S)-(1-(5-(2-(2,6-dioxopiperidin-3-yl)-1-oxoisoindolin-4-yl)pentanoyl)azetidin-3-yl)(phenyl)methyl)-1H-pyrazol-4-yl)-5,5-difluoro-5a-methyl-1,4,4a,5,5a,6-hexahydrocyclopropa[f]indazole-3-carboxamide] | 25 | 69 | –
CN(C(=O)CC1CCN(c2ccc(C3CCC(=O)NC3=O)cn2)CC1)c1ccc2cc(-c3n[nH]c4c3C[C@@H]3C(F)(F)[C@]3(C)C4)[nH]c2c1 (stereo partly shown) [Compound 20] | – | – | 66
